Measured values from US12077503B2, “Substituted cyclic amides and their use as herbicides” (FMC CORPORATION, priority 2015, dated 2024).

What was measured:
Assay type in all cases: in vivo
[1] = test system: ivy-leaved morning glory (Ipomoea hederacea); experiment: Test G Post-Emergence Protocol; settings: Ipomoea, post-emergence, 312 h; for pest or weed control at 15.625 g/ha: 15.625 g ai/ha, evaluated after 13 days (100=total damage to plant; 0=no damage to plant), read-out: Morningglory, Ivy-leaved damage rating; for pest or weed control at 62.5 g/ha: 62.5 g ai/ha, read-out: Morningglory, Ivy-leaved damage rating (100=total damage to plant; 0=no damage to plant); for pest or weed control at 62.5 g/ha / pest or weed control at 250 g/ha: evaluated after 13 days; for pest or weed control at 250 g/ha: 250 g ai/ha, read-out: damage to plant, Morningglory, Ivy-leaved (100=total damage to plant; 0=no damage to plant)
In short: (§1)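 Post-emergence herbicidal damage, scored visually 0–100 at 13 days. Application at 15.625, 62.5 or 250 g/ha onto 8-day-old plants grown under glasshouse control.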

corn (Zea mays) [2] = experiment: Test G Post-Emergence Protocol; settings: Zea mays, post-emergence, 312 h; for plant injury at 15.625 g/ha: 15.625 g ai/ha, evaluated after 13 days (100=total damage to plant; 0=no damage to plant), read-out: Corn damage rating; for plant injury at 62.5 g/ha: 62.5 g ai/ha, read-out: Corn damage rating (100=total damage to plant; 0=no damage to plant); for plant injury at 62.5 g/ha / plant injury at 250 g/ha: evaluated after 13 days; for plant injury at 250 g/ha: 250 g ai/ha, read-out: damage to plant, Corn (100=total damage to plant; 0=no damage to plant)
In short: as §1

[3] = test system: barnyardgrass (Echinochloa crus-galli); experiment: Test G Post-Emergence Protocol; settings: Echinochloa crus-galli, post-emergence, 312 h; for pest or weed control at 15.625 g/ha: 15.625 g ai/ha, evaluated after 13 days (100=total damage to plant; 0=no damage to plant), read-out: Barnyardgrass damage rating; for pest or weed control at 62.5 g/ha: 62.5 g ai/ha, read-out: Barnyardgrass damage rating (100=total damage to plant; 0=no damage to plant); for pest or weed control at 62.5 g/ha / pest or weed control at 250 g/ha: evaluated after 13 days; for pest or weed control at 250 g/ha: 250 g ai/ha, read-out: damage to plant, Barnyardgrass (100=total damage to plant; 0=no damage to plant)
In short: as §1

[4] = test system: velvetleaf (Abutilon theophrasti); experiment: Test G Post-Emergence Protocol; settings: Abutilon theophrasti, post-emergence, 312 h; for pest or weed control at 15.625 g/ha: 15.625 g ai/ha, evaluated after 13 days (100=total damage to plant; 0=no damage to plant), read-out: Velvetleaf damage rating; for pest or weed control at 62.5 g/ha: 62.5 g ai/ha, read-out: Velvetleaf damage rating (100=total damage to plant; 0=no damage to plant); for pest or weed control at 62.5 g/ha / pest or weed control at 250 g/ha: evaluated after 13 days; for pest or weed control at 250 g/ha: 250 g ai/ha, read-out: damage to plant, Velvetleaf (100=total damage to plant; 0=no damage to plant)
In short: as §1

[5] = test system: giant foxtail (Setaria faberi); experiment: Test G Post-Emergence Protocol; settings: Setaria faberi, post-emergence, 312 h; for pest or weed control at 15.625 g/ha: 15.625 g ai/ha, evaluated after 13 days (100=total damage to plant; 0=no damage to plant), read-out: Foxtail, Giant damage rating; for pest or weed control at 62.5 g/ha: 62.5 g ai/ha, read-out: Foxtail, Giant damage rating (100=total damage to plant; 0=no damage to plant); for pest or weed control at 62.5 g/ha / pest or weed control at 250 g/ha: evaluated after 13 days; for pest or weed control at 250 g/ha: 250 g ai/ha, read-out: damage to plant, Foxtail, Giant (100=total damage to plant; 0=no damage to plant)
In short: as §1

[6] = test system: redroot pigweed (Amaranthus retroflexus); experiment: Test G Post-Emergence Protocol; settings: Amaranthus retroflexus, post-emergence, 312 h; for pest or weed control at 15.625 g/ha: 15.625 g ai/ha, evaluated after 13 days (100=total damage to plant; 0=no damage to plant), read-out: Pigweed, Redroot damage rating; for pest or weed control at 62.5 g/ha: 62.5 g ai/ha, read-out: Pigweed, Redroot damage rating (100=total damage to plant; 0=no damage to plant); for pest or weed control at 62.5 g/ha / pest or weed control at 250 g/ha: evaluated after 13 days; for pest or weed control at 250 g/ha: 250 g ai/ha, read-out: damage to plant, Pigweed, Redroot (100=total damage to plant; 0=no damage to plant)
In short: as §1

[7] = test system: ivy-leaved morning glory (Ipomoea hederacea); experiment: Test G Pre-Emergence Protocol; settings: Ipomoea, pre-emergence, 312 h, evaluated after 13 days; for pest or weed control at 15.625 g/ha: 15.625 g ai/ha, read-out: Morning-glory, Ivy-leaved damage rating (100=total damage to plant; 0=no damage to plant); for pest or weed control at 62.5 g/ha: 62.5 g ai/ha, 100=total damage to plant, 0=no damage to plant, read-out: plant damage rating, Morningglory, Ivy-leaved; for pest or weed control at 250 g/ha: 250 g ai/ha, read-out: Morningglory, Ivy-leaved damage rating (100=total damage to plant; 0=no damage to plant)
In short: (§2)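 Pots of seeds in standard soil were grown for one day in a glasshouse (24/16 °C day/night, 14 h light, 65% humidity), then sprayed with compound in acetone/water 50:50 with 0.5% Tween 20 at 15.625, 62.5 or 250 g/ha. Damage was scored after 13 days on a 0 (none) to 100 (total) scale.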

corn (Zea mays) [8] = experiment: Test G Pre-Emergence Protocol; settings: Zea mays, pre-emergence, 312 h, evaluated after 13 days; for plant injury at 15.625 g/ha: 15.625 g ai/ha; for plant injury at 15.625 g/ha / plant injury at 250 g/ha: read-out: Corn damage rating (100=total damage to plant; 0=no damage to plant); for plant injury at 62.5 g/ha: 62.5 g ai/ha, 100=total damage to plant, 0=no damage to plant, read-out: plant damage rating, Corn; for plant injury at 250 g/ha: 250 g ai/ha
In short: as §2

[9] = test system: barnyardgrass (Echinochloa crus-galli); experiment: Test G Pre-Emergence Protocol; settings: Echinochloa crus-galli, pre-emergence, 312 h, evaluated after 13 days; for pest or weed control at 15.625 g/ha: 15.625 g ai/ha, read-out: Barnyard grass damage rating (100=total damage to plant; 0=no damage to plant); for pest or weed control at 62.5 g/ha: 62.5 g ai/ha, 100=total damage to plant, 0=no damage to plant, read-out: plant damage rating, Barnyardgrass; for pest or weed control at 250 g/ha: 250 g ai/ha, read-out: Barnyardgrass damage rating (100=total damage to plant; 0=no damage to plant)
In short: as §2

[10] = test system: velvetleaf (Abutilon theophrasti); experiment: Test G Pre-Emergence Protocol; settings: Abutilon theophrasti, pre-emergence, 312 h, evaluated after 13 days; for pest or weed control at 15.625 g/ha: 15.625 g ai/ha; for pest or weed control at 15.625 g/ha / pest or weed control at 250 g/ha: read-out: Velvetleaf damage rating (100=total damage to plant; 0=no damage to plant); for pest or weed control at 62.5 g/ha: 62.5 g ai/ha, 100=total damage to plant, 0=no damage to plant, read-out: plant damage rating, Velvetleaf; for pest or weed control at 250 g/ha: 250 g ai/ha
In short: as §2

[11] = test system: giant foxtail (Setaria faberi); experiment: Test G Pre-Emergence Protocol; settings: Setaria faberi, pre-emergence, 312 h, evaluated after 13 days; for pest or weed control at 15.625 g/ha: 15.625 g ai/ha; for pest or weed control at 15.625 g/ha / pest or weed control at 250 g/ha: read-out: Foxtail, Giant damage rating (100=total damage to plant; 0=no damage to plant); for pest or weed control at 62.5 g/ha: 62.5 g ai/ha, 100=total damage to plant, 0=no damage to plant, read-out: plant damage rating, Foxtail, Giant; for pest or weed control at 250 g/ha: 250 g ai/ha
In short: as §2

[12] = test system: redroot pigweed (Amaranthus retroflexus); experiment: Test G Pre-Emergence Protocol; settings: Amaranthus retroflexus, pre-emergence, 312 h, evaluated after 13 days; for pest or weed control at 15.625 g/ha: 15.625 g ai/ha; for pest or weed control at 15.625 g/ha / pest or weed control at 250 g/ha: read-out: Pigweed, Redroot damage rating (100=total damage to plant; 0=no damage to plant); for pest or weed control at 62.5 g/ha: 62.5 g ai/ha, 100=total damage to plant, 0=no damage to plant, read-out: plant damage rating, Pigweed, Redroot; for pest or weed control at 250 g/ha: 250 g ai/ha
In short: as §2

Row | SMILES | pest or weed control at 15.625 g/ha [1] | pest or weed control at 62.5 g/ha [1] | pest or weed control at 250 g/ha [1] | plant injury at 15.625 g/ha (corn (Zea mays) [2]) | plant injury at 62.5 g/ha (corn (Zea mays) [2]) | plant injury at 250 g/ha (corn (Zea mays) [2]) | pest or weed control at 15.625 g/ha [3] | pest or weed control at 62.5 g/ha [3] | pest or weed control at 250 g/ha [3] | pest or weed control at 15.625 g/ha [4] | pest or weed control at 62.5 g/ha [4] | pest or weed control at 250 g/ha [4] | pest or weed control at 15.625 g/ha [5] | pest or weed control at 62.5 g/ha [5] | pest or weed control at 250 g/ha [5] | pest or weed control at 15.625 g/ha [6] | pest or weed control at 62.5 g/ha [6] | pest or weed control at 250 g/ha [6] | pest or weed control at 15.625 g/ha [7] | pest or weed control at 62.5 g/ha [7] | further results
1 | CN1C[C@H](c2ccc(C(F)(F)F)cc2)[C@](C)(C(=O)Nc2cccc(F)c2F)C1=O (racemic) [Compound 1406] | 0% | 10% | 0% | 20% | 0% | 10% | 0% | 0% | 20% | 0% | 20% | 20% | 0% | 0% | 0% | 0% | 40% | 20% | 0% | 0% | pest or weed control at 250 g/ha [7]: 0%; plant injury at 15.625 g/ha (corn (Zea mays) [8]): 0%; plant injury at 62.5 g/ha (corn (Zea mays) [8]): 0%; plant injury at 250 g/ha (corn (Zea mays) [8]): 0%; pest or weed control at 15.625 g/ha [9]: 0%; pest or weed control at 62.5 g/ha [9]: 0%; pest or weed control at 250 g/ha [9]: 0%; pest or weed control at 15.625 g/ha [10]: 0%; pest or weed control at 62.5 g/ha [10]: 0%; pest or weed control at 250 g/ha [10]: 0%; pest or weed control at 15.625 g/ha [11]: 0%; pest or weed control at 62.5 g/ha [11]: 0%; pest or weed control at 250 g/ha [11]: 0%; pest or weed control at 15.625 g/ha [12]: 0%; pest or weed control at 62.5 g/ha [12]: 0%; pest or weed control at 250 g/ha [12]: 0%
2 | CN1C[C@H](c2cccc(C(C)(C)C#N)c2)[C@@H](C(=O)Nc2ccccc2F)C1=O (racemic) [Compound 1407] | 0% | 20% | 30% | 0% | 10% | 20% | 10% | 40% | 60% | 10% | 20% | 20% | 0% | 70% | 70% | 20% | 10% | 30% | 0% | 0% | pest or weed control at 250 g/ha [7]: 0%; plant injury at 15.625 g/ha (corn (Zea mays) [8]): 0%; plant injury at 62.5 g/ha (corn (Zea mays) [8]): 0%; plant injury at 250 g/ha (corn (Zea mays) [8]): 0%; pest or weed control at 15.625 g/ha [9]: 10%; pest or weed control at 62.5 g/ha [9]: 80%; pest or weed control at 250 g/ha [9]: 90%; pest or weed control at 15.625 g/ha [10]: 0%; pest or weed control at 62.5 g/ha [10]: 0%; pest or weed control at 250 g/ha [10]: 0%; pest or weed control at 15.625 g/ha [11]: 50%; pest or weed control at 62.5 g/ha [11]: 80%; pest or weed control at 250 g/ha [11]: 90%; pest or weed control at 15.625 g/ha [12]: 0%; pest or weed control at 62.5 g/ha [12]: 0%; pest or weed control at 250 g/ha [12]: 0%
